Source: US12351556B2, “Pyridin-2(1H)one derivatives, their preparation and their use for the treatment of pain” (INSTITUT NATIONAL DE LA SANTE ET DE LA RECHERCHE MEDICALE …, priority 2019, dated 2025)
pIC50: −log10 of the molar value.

Target: p38α MAPK (Homo sapiens (Human), UniProt Q16539)
Test: p38 alpha IC50
Format: biochemical
Settings: p38 alpha; read-out: Mean IC50
Method: Studies were undertaken to identify the possible biological target(s) of compound 69. The activation in neurons of PK such as PKCγ, ERK or p38 MAPK can contribute to pain hypersensitivity. Therefore, it was decided to screen compound 69 toward a panel of 50 PKs that provide a representative sampling of the human kinome (FIG. 3, Table 3) (Biochem. J. 2007, 408, 297-315). In this panel, p38α MAPK was identified as the privileged target, with 19% of kinase residual activity at 10 μM compound concentration.
The selectivity of compound 69 was evaluated at 1 μM toward another panel containing all four p38 MAPK isoforms, ERK1, ERK2 as well as other protein kinases close to p38α MAPK in the kinome phylogenetic tree (FIG. 4, Table 4). […] Its IC50 toward p38α MAPK was determined, showing a value in the micromolar range (IC50=3.0±0.1 μM).

p38α MAPK, sequence (Q16539 whole entry): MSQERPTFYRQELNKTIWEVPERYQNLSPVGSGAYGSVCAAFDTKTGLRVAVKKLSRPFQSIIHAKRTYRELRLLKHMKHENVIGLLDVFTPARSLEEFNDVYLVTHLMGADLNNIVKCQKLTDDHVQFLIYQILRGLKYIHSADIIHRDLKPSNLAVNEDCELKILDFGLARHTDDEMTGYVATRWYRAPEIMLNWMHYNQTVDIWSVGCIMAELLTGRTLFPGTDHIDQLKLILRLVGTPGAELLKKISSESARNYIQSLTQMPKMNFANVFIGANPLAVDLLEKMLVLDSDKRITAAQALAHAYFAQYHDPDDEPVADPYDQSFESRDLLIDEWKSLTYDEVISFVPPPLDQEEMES

Row | SMILES | pIC50
1 | O=c1[nH]cc(Nc2ccccc2F)cc1-c1cccc2[nH]ccc12 [Compound 118, 5-((2-Fluorophenyl)amino)-3-(1H-indol-4-yl)pyridin-2(1H)-one] | 6.64
2 | O=c1[nH]cc(Nc2cccc(F)c2)cc1-c1cccc2[nH]ccc12 [Compound 119, 5-((3-Fluorophenyl)amino)-3-(1H-indol-4-yl)pyridin-2(1H)-one] | 5.85
3 | O=c1[nH]cc(Nc2ccc(F)cc2)cc1-c1cccc2[nH]ccc12 [Compound 120, 5-((4-Fluorophenyl)amino)-3-(1H-indol-4-yl)pyridin-2(1H)-one] | 6.37
4 | COc1ccccc1Nc1c[nH]c(=O)c(-c2cccc3[nH]ccc23)c1 [Compound 121, 3-(1H-Indol-4-yl)-5-((2-methoxyphenyl)amino)pyridin-2(1H)-one] | 5.28
5 | COc1cccc(Nc2c[nH]c(=O)c(-c3cccc4[nH]ccc34)c2)c1 [Compound 122, 3-(1H-Indol-4-yl)-5-((3-methoxyphenyl)amino)pyridin-2(1H)-one] | 5.26
6 | COc1ccc(Nc2c[nH]c(=O)c(-c3cccc4[nH]ccc34)c2)cc1 [Compound 123, 3-(1H-Indol-4-yl)-5-((4-methoxyphenyl)amino)pyridin-2(1H)-one] | 5.44
7 | Cc1ccccc1Nc1c[nH]c(=O)c(-c2cccc3[nH]ccc23)c1 [Compound 130, 3-(1H-Indol-4-yl)-5-(o-tolylamino)pyridin-2(1H)-one] | 5.97
8 | O=c1[nH]cc(Nc2cccc(O)c2)cc1-c1cccc2[nH]ccc12 [Compound 134, 5-((3-hydroxyphenyl)amino)-3-(1H-indol-4-yl)pyridin-2(1H)-one] | 5.98
9 | O=c1[nH]cc(Nc2ccccc2Br)cc1-c1cccc2[nH]ccc12 [Compound 141, 5-((2-Bromophenyl)amino)-3-(1H-indol-4-yl)pyridin-2(1H)-one] | 5.57
10 | O=c1[nH]cc(Nc2cccc(Br)c2)cc1-c1cccc2[nH]ccc12 [Compound 142, 5-((3-Bromophenyl)amino)-3-(1H-indol-4-yl)pyridin-2(1H)-one] | 6.18
11 | O=c1[nH]cc(Nc2ccc(Br)cc2)cc1-c1cccc2[nH]ccc12 [Compound 143, 5-((4-Bromophenyl)amino)-3-(1H-indol-4-yl)pyridin-2(1H)-one] | 5.63
